The nature of one data set: in vitro. Type of data set: cell-based, Murine. The following applies: mouse. How it is done:
(§1) The antiproliferative activities of OSe compounds 2, 3, and 4 were assessed against two oligodendrocyte cell lines, namely, 158 N and 158 JP, by the M.T.T. assay using 7-ketocholesterol as reference control (Supporting info, Supplementary Table S1) ([Vejux et al., 2005]; [Nury et al., 2014]). The redox profile of the compounds was evaluated using the H2-DCFDA assay, and their antiapoptotic potential was also assessed by flow cytometry ([Wilhelm et al., 2009]; [Karlsson et al., 2010]; [Shaaban et al., 2018]). Murine oligodendrocytes ([…] and 158JP) were seeded at 240,000 cells per 24-well plates and were grown using the Dulbecco's Modified Eagle Medium supplemented with penicillin antibiotics (1% v/v, streptomycin) and fetal bovine serum (5% v/v) and kept at 37 °C in atmosphere containing 5% CO2. The concentration of 7kc and vitamin E, and the time of treatment were chosen based on data obtained on 7kc treated […] cells. Organoselenium compounds were prepared in DMSO and then diluted with DMEM up to 1 mM. The MTT assay was carried out on […] and 158JP cells after one day of incubation with 7kc (50μM)/different concentrations (0, 1, 10, 20, 50 and 100 μM) of the organic selenides. In live cells, the MTT is reduced to formazan by the succinate dehydrogenase mitochondrial enzyme. The microplate reader Tecan Sunrise (Tecan, Lyon, France) was used for the reading of the plates at 570 nm. The IC50 values and the maximum concentrations without toxicity were estimated for each of the compounds from the respective dose-response curves.

Data set [1] relates to 158N cells. Description: H2-DCFDA assay of ROS levels by flow cytometry. Type of data set: cell-based, Murine. The conditions noted are these: Mus musculus, ROS level, mean ± SD, * P < 0.05 vs DMSO; for activity at 50 µM: compound at 50 µM, read-out: H2-DCFDA assay (% of control), C3 (50 µM); for activity at 10 µM: compound at 10 µM, read-out: H2-DCFDA assay (% of control), C1 (10 µM); for activity at 20 µM: compound at 20 µM, read-out: H2-DCFDA assay (% of control), C2 (20 µM). How it is done:
The antiproliferative activities of OSe compounds 2, 3, and 4 were assessed against two oligodendrocyte cell lines, namely, 158 N and 158 JP, by the M.T.T. assay using 7-ketocholesterol as reference control (Supporting info, Supplementary Table S1) ([Vejux et al., 2005]; [Nury et al., 2014]). The redox profile of the compounds was evaluated using the H2-DCFDA assay, and their antiapoptotic potential was also assessed by flow cytometry ([Wilhelm et al., 2009]; [Karlsson et al., 2010]; [Shaaban et al., 2018]). ROS overproduction and O2^•− and were detected with H2-DCFDA assay. Cultured cells were treated with trypsin re-suspended in PBS (10^6 cells/mL) and kept in the dark for half hour at 37 °C with H2-DCFDA at 10 μM and cells were analyzed by flow cytometry. The green fluorescence of 2’,7’- dichlorofluorescein resulting from the oxidation of H2-DCFDA was analyzed by flow cytometry and collected through a 520/10-nm band pass filter. Flomax (Partec) or FlowJo (Tree Star Inc.) software were used for the data analysis.

The subject of data set [2] is 158N cells. Description: in vitro. It is filed as cell-based, Murine. The following applies: for IC50: mouse, 1 day. How it is done: as §1
Another data set concerns 158JP cells. The experiment in a line: in vitro. It is filed as cell-based, Murine. The conditions noted are these: for IC50: mouse, 1 day. How it is done: as §1
Data set [3] concerns 158N cells. The experiment in a line: Antiapoptotic effect: Sub-G1 peak by flow cytometry, PI staining, 7kc as apoptosis stimulator. It is filed as cell-based, Murine. The following applies: 158N cells stained with P.I., 7kc (50 μM) 24 hours, compound at 50, 10, 5 and 1 μM. How it is done:
Furthermore, the antiapoptotic activities of compounds 2, 3, and 4 were also evaluated by flow cytometry in 158N cells stained with P.I. using 7Kc as apoptosis stimulator and the positive reference (Supporting info, Supplementary Figure S1). […] The N-maleanilic acid 3 amphiphilic characters favor its crossing through the cell membrane and, therefore, its better activity.
The analysis of the cell cycle can reveal a Sub-G1 peak, which is representative of apoptotic cells. Cell cycle analysis was detected on 158N cells stained with Propidium Iodide (PI). Flow cytometric analyses were measured on a Galaxy flow cytometer. Cells were prepared by re-suspension in cold ethanol (80%, −20 °C) for 2 hrs.Cells were then washed withphosphate buffer, and re-suspended in phosphate buffer (300 μL) containing PI (80 μg/mL) and RNase (200 μg/mL) and kept for 1 h at 37°C.PBS 2 mL was then added, and Fluorescence of propidium iodide was recorded using a 590 ± 10 nm band filter. The percentage of cells in different cell cycle phase was manually estimated.
Figure S1. Anti-apoptotic effect of the organoselenium derivative 3 on oligodendrocytes. The anti-apoptotic effect was measured by cytometry using propidium iodide. […]

Each structure is given as a SMILES string.

For `CC(C)CCC[C@@H](C)[C@H]1CC[C@H]2[C@@H]3C(=O)C=C4C[C@@H](O)CC[C@]4(C)[C@H]3CC[C@]12C` [7kc, 7-ketocholesterol, reference compound], the IC50 at 1 day in “in vitro” (Cytotoxicity assay IC50, 158JP) turned out to be 74 µM; in the data set “in vitro” (Cytotoxicity assay IC50, 158N) it was 37 µM. For the same compound, the activity at 50 µM in the data set with 158N cells [1] is 48 ± 2%.

In turn, `Nc1ccc([Se]Cc2ccc(Br)cc2)cc1` [Compound 2, 4-((4-bromobenzyl)selanyl)aniline] returned a melting point of 156 to 158 °C. Moreover, the half-maximal inhibitory concentration (IC50) at 1 day in “in vitro” (Cytotoxicity assay IC50, 158JP) is ≥ 100 µM. The IC50 at 1 day in the data set “in vitro” (Cytotoxicity assay IC50, 158N) is ≥ 100 µM. In the data set with 158N cells [2], the concentration for half-maximal inhibition (IC50) was > 100 µM. Besides, the concentration for half-maximal inhibition (IC50) with 158JP cells was > 100 µM. In the data set on 158N cells [1], the activity at 10 µM was found to be 36 ± 8%, the activity at 20 µM amounted to 41 ± 2% and the activity at 50 µM stood at 48 ± 2%.

Turning to `O=C(O)C=CC(=O)Nc1ccc([Se]Cc2ccc(Br)cc2)cc1` [Compound 3, 4-((4-((4-bromobenzyl)selanyl)phenyl)amino)-4-oxobut-2-enoic acid], the melting point was 215 to 217 °C. Besides, in “in vitro” (Cytotoxicity assay IC50, 158JP), the IC50 at 1 day amounted to 50 µM. This compound registered an IC50 at 1 day in the data set “in vitro” (Cytotoxicity assay IC50, 158N) of 29 µM. In the data set on 158N cells [2], the “cytotoxicity (in words)” value is “moderate-low cytotoxicity”. Also, the “cytotoxicity (in words)” value in the data set on 158JP cells is “moderate-low cytotoxicity”. Also, in the data set on 158N cells [3], the “formation of SubG1 peak (antiapoptotic activity, in words)” value is “lowered, in a concentration-dependent manner, the formation of SubG1 peak”. In the data set with 158N cells [1], the activity at 10 µM amounted to 42 ± 10%, the activity at 20 µM turned out to be 36 ± 20% and the activity at 50 µM stood at 31 ± 20%.

With `O=C1C=CC(=Nc2ccc([Se]Cc3ccc(Br)cc3)cc2)O1` [Compound 4], the melting point was in the range of 185 to 187 °C. In the data set “in vitro” (Cytotoxicity assay IC50, 158JP), the IC50 at 1 day is ≥ 100 µM. Moreover, the IC50 at 1 day in the data set “in vitro” (Cytotoxicity assay IC50, 158N) is ≥ 100 µM. Also, in the data set on 158N cells [2], the IC50 is > 100 µM. Moreover, in the data set with 158JP cells, the IC50 is > 100 µM. Besides, in the data set on 158N cells [1], the activity at 10 µM is 7 ± 4%, the activity at 20 µM stood at 8 ± 4% and the activity at 50 µM came out at 11 ± 4%.

For the origin of these results see paper PMC9388736, “Unexpected kinetically controlled organoselenium-based isomaleimide: X-ray structure, hirshfeld surface analysis, 3D energy framework approach, and density functional theory calculation” (Frontiers in Chemistry, 2022).
